Patent US9073907B2, “Thiazoles derivatives and their use as positive allosteric modulators of metabotropic glutamate receptors” (Addex Pharma S.A., priority 2009, dated 2015)
Where “and” joins values, the source holds several entries; their conditions need not be identical. Equal values may be shown once.

How the values were obtained:
[1] = target: T1, recombinant human mGluR4a receptors (Homo sapiens, UniProt Q14833); experiment: mGluR4 assay on HEK-expressing human mGluR4: fluorescent cell based Ca2+ mobilization assay (FLIPR, Fluo-4); settings: enhancement of EC25 glutamate response in HEK-293 cells expressing hmGluR4; mean of at least three independent experiments performed in duplicate; read-out: Ca^2+ Flux (mean EC50)
T1 construct: expressed in transfected cells
Text: mGluR4 Assay on HEK-Expressing Human mGluR4 The compounds of the present invention are positive allosteric modulators of mGluR4 receptor. Their activity was examined on recombinant human mGluR4a receptors by detecting changes in intracellular Ca^2+ concentration, using the fluorescent Ca^2+-sensitive dye Fluo-4-(AM) and a Fluorometric Imaging Plate Reader (FLIPR, Molecular Devices, Sunnyvale, Calif.). The cDNA encoding the human metabotropic glutamate receptor (hmGluR4), (accession number NM_000841.1, NCBI Nucleotide database browser), was subcloned into an expression vector containing also the hygromycin resistance gene. In parallel, the cDNA encoding a G protein allowing redirection of the activation signal to intracellular calcium flux was subcloned into a different expression vector containing also the puromycin resistance gene. Transfection of both these vectors into HEK293 cells with PolyFect reagent (Qiagen) according to supplier's protocol, and hygromycin and puromycin treatment allowed selection of antibiotic resistant cells which had integrated stably one or more copies of the plasmids. Positive cellular clones expressing hmGluR4 were identified in a functional assay measuring changes in calcium fluxes in response to glutamate or selective known mGluR4 orthosteric agonists and antagonists. HEK-293 cells expressing hmGluR4 were maintained in media containing DMEM, dialyzed Fetal Calf Serum (10%), Glutamax™ (2 mM), Penicillin (100 units/mL), Streptomycin (100 μg/mL), Geneticin (100 μg/mL) and Hygromycin-B (40 μg/mL) and puromycin (1 μg/mL) at 37° C./5% CO2. Human mGluR4 HEK-293 cells were plated out 24 hours prior to FLIPR^384 assay in black-walled, clear-bottomed, poly-L-ornithine-coated 384-well plates at a density of 25,000 cells/well in a glutamine/glutamate free DMEM medium containing foetal bovine serum (10%), penicillin (100 units/mL) and streptomycin (100 μg/mL) at 37° C./5% CO2. On the day of the assay, the medium was aspirated and the cells were loaded with a 3 μM solution of Fluo4-AM (LuBioScience, Lucerne, Switzerland) in 0.03% pluronic acid. After 1 hour at 37° C./5% CO2, the non incorporated dye was removed by washing cell plate with the assay buffer and the cells were left in the dark at room temperature for […] before testing. All assays were performed in a pH 7.4 buffered-solution containing 20 mM HEPES, 143 mM NaCl, 6 mM KCl, 1 mM MgSO4, 1 mM CaCl2, 0.125 mM sulfapyrazone and 0.1% glucose. After 10 s of basal fluorescence recording, various concentrations of the compounds of the invention were added to the cells. Changes in fluorescence levels were first monitored for 180 s in order to detect any agonist activity of the compounds. Then the cells were stimulated by an EC25 glutamate concentration for an additional 110 s in order to measure enhancing activities of the compounds of the invention. EC25 glutamate concentration is the concentration giving 25% of the maximal glutamate response. The concentration-response curves of representative compounds of the present invention were generated using the Prism GraphPad software (Graph Pad Inc, San Diego, USA). The curves were fitted to a four-parameter logistic equation: (Y=Bottom+(Top−Bottom)/(1+10^((Log EC50−X)*Hill Slope) allowing the determination of EC50 values. The Table 3 below represents the mean EC50 obtained from at least three independent experiments of selected molecules performed in duplicate.

T1 sequence (Q14833 33-912): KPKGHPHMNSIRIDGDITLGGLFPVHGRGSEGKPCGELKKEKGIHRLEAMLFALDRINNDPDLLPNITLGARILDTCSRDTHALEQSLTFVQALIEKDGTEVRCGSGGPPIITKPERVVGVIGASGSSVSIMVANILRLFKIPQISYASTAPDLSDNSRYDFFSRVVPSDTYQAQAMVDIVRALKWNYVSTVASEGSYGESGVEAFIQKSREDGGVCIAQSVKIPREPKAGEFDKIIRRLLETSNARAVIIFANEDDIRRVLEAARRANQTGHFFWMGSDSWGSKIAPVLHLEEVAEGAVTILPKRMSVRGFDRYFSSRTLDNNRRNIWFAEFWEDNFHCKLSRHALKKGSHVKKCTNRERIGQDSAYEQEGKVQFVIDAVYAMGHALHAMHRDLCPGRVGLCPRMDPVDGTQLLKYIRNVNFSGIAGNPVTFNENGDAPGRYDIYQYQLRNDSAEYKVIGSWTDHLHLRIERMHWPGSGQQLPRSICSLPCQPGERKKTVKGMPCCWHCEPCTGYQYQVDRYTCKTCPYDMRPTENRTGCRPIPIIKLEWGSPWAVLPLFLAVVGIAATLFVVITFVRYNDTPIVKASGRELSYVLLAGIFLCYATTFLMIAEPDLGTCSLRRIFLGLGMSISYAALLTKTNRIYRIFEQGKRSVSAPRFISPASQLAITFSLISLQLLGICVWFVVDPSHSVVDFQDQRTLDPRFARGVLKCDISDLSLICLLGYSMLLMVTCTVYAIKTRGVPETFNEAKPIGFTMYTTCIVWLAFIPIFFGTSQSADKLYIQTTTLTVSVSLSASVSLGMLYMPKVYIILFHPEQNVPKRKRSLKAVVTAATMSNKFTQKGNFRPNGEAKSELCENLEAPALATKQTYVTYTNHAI

SMILES	EC50 [1]	melting point
c1ccc(Nc2nc(-c3c[nH]nc3CC3CC3)cs2)nc1 [Compound 1-6, 4-(3-(Cyclopropylmethyl)-1H-pyrazol-4-yl)-N-(pyridin-2-yl)thiazol-2-amine]	100 to 1000 nM	
c1ccc(Nc2nc(-c3cn[nH]c3)c(N3CCCC3)s2)nc1 [Compound 1-8, 4-(1H-Pyrazol-4-yl)-N-(pyridin-2-yl)-5-(pyrrolidin-1-yl)thiazol-2-amine]	1000 to 10000 nM	209 °C
COCc1sc(Nc2ccccn2)nc1-c1cn[nH]c1 [Compound 1-18, 5-(Methoxymethyl)-4-(1H-pyrazol-4-yl)-N-(pyridin-2-yl)thiazol-2-amine]	100 to 1000 nM	
c1ccc(Nc2nc(-c3cn[nH]c3)c(CN3CCOCC3)s2)nc1 [Compound 1-21, 5-(Morpholinomethyl)-4-(1H-pyrazol-4-yl)-N-(pyridin-2-yl)thiazol-2-amine]	1000 to 10000 nM	
N#Cc1[nH]ncc1-c1csc(Nc2ccccn2)n1 [Compound 1-26, 4-(2-(Pyridin-2-ylamino)thiazol-4-yl)-1H-pyrazole-5-carbonitrile]	100 to 1000 nM	
Cn1ccc(Nc2nc(-c3cn[nH]c3)cs2)n1 [Compound 1-27, N-(1-Methyl-1H-pyrazol-3-yl)-4-(1H-pyrazol-4-yl)thiazol-2-amine]	1000 to 10000 nM	209 to 211 °C
CC(=O)NCn1cc(-c2nc(Nc3ccccn3)sc2C)cn1 [Compound 1-61, N-((4-(5-Methyl-2-(pyridin-2-ylamino)thiazol-4-yl)-1H-pyrazol-1-yl)methyl)acetamide]	1000 to 10000 nM	175 °C and 180 °C
CN(C)c1[nH]ncc1-c1csc(Nc2ncccn2)n1 [Compound 1-65, 4-(5-(Dimethylamino)-1H-pyrazol-4-yl)-N-(pyrimidin-2-yl)thiazol-2-amine]	1000 to 10000 nM	

Second part, the compound after the results:

EC50 [1]	melting point	SMILES
100 to 1000 nM	331 °C	Cc1sc(Nc2cccc(C#N)n2)nc1-c1cn[nH]c1 [Compound 1-1, 6-(5-Methyl-4-(1H-pyrazol-4-yl)thiazol-2-ylamino)picolinonitrile]
< 100 nM	237 °C	Fc1cccc(Nc2nc(-c3cn[nH]c3)c(F)s2)n1 [Compound 1-10, 5-Fluoro-N-(6-fluoropyridin-2-yl)-4-(1H-pyrazol-4-yl)thiazol-2-amine]
< 100 nM	298 to 300 °C	Cc1sc(Nc2ncccn2)nc1-c1cn[nH]c1 [Compound 1-16, 5-Methyl-4-(1H-pyrazol-4-yl)-N-(pyrimidin-2-yl)thiazol-2-amine]
< 100 nM	299 to 304 °C	Clc1[nH]ncc1-c1csc(Nc2ccccn2)n1 [Compound 1-17, 4-(5-Chloro-1H-pyrazol-4-yl)-N-(pyridin-2-yl)thiazol-2-amine]
